The text below walks through data of PMC5640605, “Fructose-1,6-bisphosphate couples glycolytic flux to activation of Ras” (Nature Communications, 2017).

This experiment addresses T1, Sos1 (Homo sapiens, UniProt Q07889).
T1 construct: catalytic part of Sos1 (residues 564–1049)
T1 sequence (Q07889 564-1049): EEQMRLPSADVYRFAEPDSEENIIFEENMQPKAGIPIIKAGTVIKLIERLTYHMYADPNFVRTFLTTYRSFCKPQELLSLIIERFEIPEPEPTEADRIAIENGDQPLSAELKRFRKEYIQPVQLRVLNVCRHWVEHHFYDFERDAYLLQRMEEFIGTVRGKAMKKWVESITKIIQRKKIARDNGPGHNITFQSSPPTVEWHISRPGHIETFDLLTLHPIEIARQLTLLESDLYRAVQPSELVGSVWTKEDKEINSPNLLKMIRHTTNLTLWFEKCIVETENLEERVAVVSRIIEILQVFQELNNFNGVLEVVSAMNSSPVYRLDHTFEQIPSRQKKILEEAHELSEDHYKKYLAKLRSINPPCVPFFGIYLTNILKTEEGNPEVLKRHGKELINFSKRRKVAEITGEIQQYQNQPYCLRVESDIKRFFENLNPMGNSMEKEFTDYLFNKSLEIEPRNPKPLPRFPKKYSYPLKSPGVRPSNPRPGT
Put plainly: fluorescence-based thermal shift assay (SYPRO Orange) with Langmuir Kd fit; supported by BLI of Sos1/H-Ras complex dissociation (KDapp […]). The format is binding.

On to `O=P(O)(O)OC[C@H]1OC(O)(COP(=O)(O)O)[C@@H](O)[C@@H]1O` (stereo partly shown) [Fru1,6bisP], for which the Kd was 17.5 ± 2.2 mM.
